From patent publication US5446049A, “Azanoradamantanes for treatment of conditions responsive to 5-HT agonists and/or antagonists” (priority 1994, dated 1995)
Blank lines part the entries; values can stand above or below the compound they belong to.

Legend:
[1] = target: T1, 5-HT4 receptor (Rattus norvegicus, UniProt Q62758); format: cell-based; details: Table I; tissues from 5 rats; carbachol 3 μM; read-out: 5-HT4 Agonism (Rat TMM) In Vitro Assay: EC50 values
T1 construct: The inner tunica muscularis mucosa was mounted under 0.2-0.3 g of tension in a tissue bath; from tissue; host or cells: rat intrathoracic oesophagus, tunica muscularis mucosae
Excerpt: (§1) (Baxter et al., Naunyn Schmied Arch. Pharmacol, 1991, 343, 439). […] One with skill in the art could determine the activity of the compounds of the present invention using the methodology of these assays, described herein, without undue experimentation.
One 2 cm segment of intrathoracic esophagus proximal to the diaphragm was removed from male rats, weighing approximately 300 gm, and the outer muscle layers removed. The inner tunica muscularis mucosa was mounted under 0.2-0.3 g of tension in a tissue bath containing oxygenated Tyrode's solution at 37° C. […] Following a 30 min equilibrium period, tissues were isometrically contracted with carbachol (3 μM) to obtain a tonic contraction. A stable plateau was obtained within 20 min when test compound was added cumulatively to relax the muscle strip. EC50 values were obtained for each agonist in tissues from 5 rats.

[2] = tested on: gastric emptying; details: cited from earlier work; for gastric emptying: Gidda et al 1988; for gastric emptying rates in vivo: Buchheit et al 1985
[3] = target: T2, 5-HT3 receptor (Rattus norvegicus, UniProt P35563); experiment: 5-HT3 radioligand receptor binding assay ([3H]-GR65630, rat brain cortex membranes)
T2 construct: Brain cortices were obtained from male rats and a membrane fraction prepared by standard techniques; from tissue; host or cells: rat brain cortex membranes
T2 sequence (P35563 24-483): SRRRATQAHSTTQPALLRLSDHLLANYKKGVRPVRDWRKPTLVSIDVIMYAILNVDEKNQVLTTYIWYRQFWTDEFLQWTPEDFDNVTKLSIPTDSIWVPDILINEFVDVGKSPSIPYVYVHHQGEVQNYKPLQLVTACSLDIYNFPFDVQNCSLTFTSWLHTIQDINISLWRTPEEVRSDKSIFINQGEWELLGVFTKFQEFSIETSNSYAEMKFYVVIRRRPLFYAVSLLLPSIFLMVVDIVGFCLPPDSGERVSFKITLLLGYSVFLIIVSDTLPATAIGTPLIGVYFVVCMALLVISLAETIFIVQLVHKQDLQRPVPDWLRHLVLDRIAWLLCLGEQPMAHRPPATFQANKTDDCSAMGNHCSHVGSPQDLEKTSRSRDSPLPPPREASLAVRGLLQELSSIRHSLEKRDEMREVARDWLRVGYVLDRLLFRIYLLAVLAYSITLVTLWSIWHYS
Description: as §1
Procedure: GR65630 binds to the 5-HT3 receptor. Brain cortices were obtained from male rats and a membrane fraction prepared by standard techniques. 0.04 mg of membrane prep was incubated with 0.2 nM [^3 H]-GR65630 for 66 minutes at 22° C. […] Membranes were filtered and washed 3 times and the filters were counted to determine [^3 H]-GR65630 specifically bound. (Kilpatrick G. J., Jones B. J. and Tyers M. B., Identification and Distribution of 5-HT3 Receptors in Rat Brain Using Radioligand Binding Assay, Nature, 330, 746-748 (1987)).

[4] = tested on: guinea pig stomach strips; details: cited from earlier work; for guinea pig stomach muscle strip contraction in vitro: Buchheit et al 1985
[5] = tested on: 5-HT3-mediated Bezold Jarisch reflex; details: in vivo; cited from earlier work
[6] = tested on: 5-HT4 receptors; details: Craig and Clarke; cited from earlier work
[7] = tested on: GI tract; details: various animal models; cited from earlier work
[8] = tested on: GI transit; details: cited from earlier work
[9] = tested on: antroduodenal motility; details: Van Nueten et al 1989, cited from earlier work
[10] = tested on: 5-HT4 receptor; details: Dumuis et al 1989; mouse embryonic colliculi neurons; cited from earlier work
[11] = tested on: myenteric neurons; details: Nemeth and Gullikson; cited from earlier work
[12] = tested on: charcoal meal transit; details: Kimura et al 1989; cited from earlier work

T1 sequence (Q62758 whole entry): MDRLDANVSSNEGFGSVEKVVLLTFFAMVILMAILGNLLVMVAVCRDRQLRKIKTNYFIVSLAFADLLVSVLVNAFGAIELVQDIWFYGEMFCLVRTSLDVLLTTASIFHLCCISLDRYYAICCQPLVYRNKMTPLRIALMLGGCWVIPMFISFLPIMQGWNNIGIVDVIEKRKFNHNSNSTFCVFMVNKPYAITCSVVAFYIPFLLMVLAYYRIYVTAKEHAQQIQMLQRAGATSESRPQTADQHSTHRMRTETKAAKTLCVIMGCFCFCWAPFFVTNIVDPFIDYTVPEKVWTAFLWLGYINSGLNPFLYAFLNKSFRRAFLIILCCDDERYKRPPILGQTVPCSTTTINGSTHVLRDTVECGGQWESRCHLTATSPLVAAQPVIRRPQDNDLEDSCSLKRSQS

Compound: COc1cc(N)c(Cl)cc1C(=O)NC[C@@H]1[C@H]2C[C@H]3C[C@@H]1N(C3)C2 [Example 3, 4-amino-5-chloro-N-(hexahydro-2β,6β-methano-1H,7aα-pyrrolizin-1S,1α-ylmethyl)-2-methoxybenzamide]
EC50 [1]: 140 nM

Compound: COc1cc(N)c(Cl)cc1C(=O)NC1CN2CCC1CC2 (stereo not shown) [zacopride]
gastric emptying [2]: enhanced gastric emptying

Compound: COc1cc(N)c(Cl)cc1C(=O)NC[C@@H]1[C@H]2C[C@H]3C[C@@H]1N(C3)C2 (relative stereo) [Example 1, 4-amino-5-chloro-N-(hexahydro-2β,6β-methano-1H,7aα-pyrrolizin-1β-ylmethyl)-2-methoxybenzamide]
EC50 [1]: 175 nM
Ki ([3]; read-out: Ki, effect of compounds on [3H]-GR65630 bound, Table II, 0.2 nM [3H]-GR65630, 66 minutes, 22° C.): 5.5 nM

Compound: CCN(CC)CCNC(=O)c1cc(Cl)c(N)cc1OC [metoclopramide]
guinea pig stomach muscle strip contraction in vitro [4]: enhanced guinea pig stomach muscle strip contraction in vitro
electrical-field stimulated contractions in guinea pig stomach strips ([4]; Gunning and Naylor 1985): enhanced electrical-field stimulated contractions in guinea pig stomach strips
gastric emptying rates in vivo [2]: increases in gastric emptying rates in vivo
block of the 5-HT3-mediated Bezold Jarisch reflex [5]: blocks the 5-HT3-mediated Bezold Jarisch reflex

Compound: NCCc1c[nH]c2ccc(O)cc12 [Serotonin, 5-hydroxytryptamine]
peristaltic reflex evoked, mediated through agonism at 5-HT4 receptors [6]: mediated through agonism at 5-HT4 receptors
peristalsis in the GI tract [7]: promote peristalsis in the GI tract

Compound: Cc1nccn1CC1CCc2c(c3ccccc3n2C)C1=O (stereo not shown) [GR38032]
gastric emptying [2]: enhanced gastric emptying
GI transit in man ([8]; Gore et al 1990): failed to accelerate GI transit
colonic transit in man ([8]; Gore et al 1990): slowed colonic transit in man
small intestinal transit times or mouth-to-cecum transit times ([8]; Talley et al 1989, man): did not alter small intestinal transit times or mout-to-cecum transit times

EC50 [1]: 415 nM
Compound: COc1cc(N)c(Cl)cc1C(=O)NC[C@@H]1[C@@H]2C[C@@H]3C[C@H]1N(C3)C2 (relative stereo) [Example 2, 4-amino-5-chloro-N-(hexahydro-2β,6β-methano-1H,7aα-pyrrolizin-1β-ylmethyl)-2-methoxybenzamide]

Compound: COc1cc(N)c(Cl)cc1C(=O)NC1CCN(CCCOc2ccc(F)cc2)CC1OC (stereo not shown) [Cisapride]
antroduodenal motility in dogs [9]: enhanced antroduodenal motility in dogs
agonist activity at 5-HT4 receptor [10]: agonist activity
ability to depolarize myenteric neurons versus 5-HT3 antagonism [11]: unrelated to their properties of 5-HT3 antagonism

Compound: CN1[C@@H]2CC[C@H]1C[C@@H](OC(=O)c1c[nH]c3ccccc13)C2 [ICS 205-930]
guinea pig stomach muscle strip contraction in vitro [4]: enhanced guinea pig stomach muscle strip contraction in vitro
gastric emptying rates in vivo [2]: increases in gastric emptying rates in vivo
gastric emptying [2]: enhanced gastric emptying
effect on the responses to cisapride when coadministered ([9]; dogs): did not affect the responses to cisapride

EC50 [1]: 274 nM
Compound: COc1cc(N)c(Cl)cc1C(=O)NC[C@H]1[C@@H]2C[C@@H]3C[C@H]1N(C3)C2 [Example 4, 4-amino-5-chloro-N-(hexahydro-2β,6β-methano-1H,7aα-pyrrolizin-1R,1α-ylmethyl)-2-methoxybenzamide]

Compound: Cc1nc[nH]c1CCC(=O)c1cn(C)c2ccccc12 [[^3 H]-GR65630]
% Specific Binding ([3]; radioligand, non-specific binding with 1 uM ICS 205-930): 70%
Bmax ([3]; radioligand, rat brain cortex membranes): 154 fmol/mg protein

Compound: COc1cc(N)c(Cl)cc1C(=O)NC1CCN2CCCC1C2 (stereo not shown) [BRL-24924]
agonist activity at 5-HT4 receptor [10]: agonist activity
peristaltic reflex evoked, mediated through agonism at 5-HT4 receptors [6]: mediated through agonism at 5-HT4 receptors
ability to depolarize myenteric neurons versus 5-HT3 antagonism [11]: unrelated to their properties of 5-HT3 antagonism

Compound: CN1[C@@H]2CC[C@H]1C[C@@H](OC(=O)c1cc(Cl)cc(Cl)c1)C2 [MDL 72222]
guinea pig stomach muscle strip contraction in vitro [4]: enhanced guinea pig stomach muscle strip contraction in vitro
gastric emptying rates in vivo [2]: increases in gastric emptying rates in vivo

Compound: Cc1nccn1CC1CCc2c(c3ccccc3n2C)C1=O.Cl.O.O (stereo not shown) [SN-307]
transit of a charcoal meal in mice [12]: enhanced transit of a charcoal meal in mice
